Measurements: paper PMC9516332 (Frontiers in Oncology, 2022)
Like-named read-outs stand apart in the source and are kept apart here.

Experiments:
134 cancer cell lines = assay: Cell viability assay (ATPlite, 72 hours), IC50 on cancer cell line panel
AP-1060 (ETV6-NTRK3) = assay: Cell viability assay; conditions: read-out: IC50 in cell proliferation assay
[1] = biological target: panel of 255 wild-type kinases (Homo sapiens, UniProt P42684); assay: Kinase panel profiling at 1 µmol/L (MSA or IMAP), percentage inhibition; assay type: biochemical; conditions: read-out: %-inhibition ARG
[2] = biological target: panel of 255 wild-type kinases (Homo sapiens, UniProt O00311); assay: as above; assay type: biochemical; conditions: read-out: %-inhibition CDC7/ASK

Structure (SMILES): CNC(=O)c1ccc(-c2cnc3ncc(Cc4ccc5ncccc5c4)n3n2)cc1F [capmatinib]
- IC50 (134 cancer cell lines; Homo sapiens, MDA-MB-231, read-out: IC50 in cell proliferation assay): > 31.6 µM
- IC50 (134 cancer cell lines; Homo sapiens, MDA-MB-453, read-out: IC50 in cell proliferation assay): > 31.6 µM
- IC50 (134 cancer cell lines; Homo sapiens, MDA-MB-468, read-out: IC50 in cell proliferation assay): 30.8 µM
- IC50 (134 cancer cell lines; Homo sapiens, MG-63, read-out: IC50 in cell proliferation assay): > 31.6 µM
- IC50 (134 cancer cell lines; Homo sapiens, MIA PaCa-2, read-out: IC50 in cell proliferation assay): > 31.6 µM
- IC50 (134 cancer cell lines; Homo sapiens, MKN-45, read-out: IC50 in cell proliferation assay): 0.004 µM
- IC50 (134 cancer cell lines; Homo sapiens, MOLM-13, read-out: IC50 in cell proliferation assay): 6.01 µM
- IC50 (134 cancer cell lines; Homo sapiens, MOLT-4, read-out: IC50 in cell proliferation assay): > 31.6 µM
- IC50 (134 cancer cell lines; Homo sapiens, MV4-11, read-out: IC50 in cell proliferation assay): 1.95 µM
- IC50 (134 cancer cell lines; Homo sapiens, MeWo, read-out: IC50 in cell proliferation assay): > 31.6 µM
- IC50 (134 cancer cell lines; Homo sapiens, NCCIT, read-out: IC50 in cell proliferation assay): > 31.6 µM
- IC50 (134 cancer cell lines; Homo sapiens, NCI-H82, read-out: IC50 in cell proliferation assay): > 31.6 µM
- IC50 (134 cancer cell lines; Homo sapiens, NCI-H460, read-out: IC50 in cell proliferation assay): > 31.6 µM
- IC50 (134 cancer cell lines; Homo sapiens, NCI-H661, read-out: IC50 in cell proliferation assay): > 31.6 µM
- IC50 (134 cancer cell lines; Homo sapiens, NCI-H716, read-out: IC50 in cell proliferation assay): > 31.6 µM
- IC50 (134 cancer cell lines; Homo sapiens, NCI-H1650, read-out: IC50 in cell proliferation assay): 9.45 µM
- IC50 (134 cancer cell lines; Homo sapiens, NCI-H1975, read-out: IC50 in cell proliferation assay): > 31.6 µM
- IC50 (134 cancer cell lines; Homo sapiens, NCI-H2228, read-out: IC50 in cell proliferation assay): > 31.6 µM
- IC50 (134 cancer cell lines; Homo sapiens, OVCAR-3, read-out: IC50 in cell proliferation assay): > 31.6 µM
- IC50 (134 cancer cell lines; Homo sapiens, PFSK-1, read-out: IC50 in cell proliferation assay): > 31.6 µM
- IC50 (134 cancer cell lines; Homo sapiens, RL95-2, read-out: IC50 in cell proliferation assay): > 31.6 µM
- IC50 (134 cancer cell lines; Homo sapiens, RPMI-7951, read-out: IC50 in cell proliferation assay): > 31.6 µM
- IC50 (134 cancer cell lines; Homo sapiens, RS4-11, read-out: IC50 in cell proliferation assay): > 31.6 µM
- IC50 (134 cancer cell lines; Homo sapiens, Rec1, read-out: IC50 in cell proliferation assay): 3.02 µM
- IC50 (134 cancer cell lines; Homo sapiens, SHP77, read-out: IC50 in cell proliferation assay): > 31.6 µM
- IC50 (134 cancer cell lines; Homo sapiens, SK-BR-3, read-out: IC50 in cell proliferation assay): > 31.6 µM
- IC50 (134 cancer cell lines; Homo sapiens, SK-N-AS, read-out: IC50 in cell proliferation assay): > 31.6 µM
- IC50 (134 cancer cell lines; Homo sapiens, SK-N-FI, read-out: IC50 in cell proliferation assay): > 31.6 µM
- IC50 (134 cancer cell lines; Homo sapiens, SK-N-MC, read-out: IC50 in cell proliferation assay): > 31.6 µM
- IC50 (134 cancer cell lines; Homo sapiens, SK-N-SH, read-out: IC50 in cell proliferation assay): 9.7 µM
- IC50 (134 cancer cell lines; Homo sapiens, SNU-5, read-out: IC50 in cell proliferation assay): 0.000951 µM
- IC50 (134 cancer cell lines; Homo sapiens, SNU-16, read-out: IC50 in cell proliferation assay): > 31.6 µM
- IC50 (134 cancer cell lines; Homo sapiens, SNU-C2B, read-out: IC50 in cell proliferation assay): > 31.6 µM
- IC50 (134 cancer cell lines; Homo sapiens, SU-DHL-1, read-out: IC50 in cell proliferation assay): > 31.6 µM
- IC50 (134 cancer cell lines; Homo sapiens, SU-DHL-6, read-out: IC50 in cell proliferation assay): > 31.6 µM
- IC50 (134 cancer cell lines; Homo sapiens, SUP-T1, read-out: IC50 in cell proliferation assay): > 31.6 µM
- IC50 (134 cancer cell lines; Homo sapiens, SW48, read-out: IC50 in cell proliferation assay): > 31.6 µM
- IC50 (134 cancer cell lines; Homo sapiens, SW480, read-out: IC50 in cell proliferation assay): > 31.6 µM
- IC50 (134 cancer cell lines; Homo sapiens, SW626, read-out: IC50 in cell proliferation assay): > 31.6 µM
- IC50 (134 cancer cell lines; Homo sapiens, SW780, read-out: IC50 in cell proliferation assay): > 31.6 µM
- IC50 (134 cancer cell lines; Homo sapiens, SW837, read-out: IC50 in cell proliferation assay): 7.23 µM
- IC50 (134 cancer cell lines; Homo sapiens, SW872, read-out: IC50 in cell proliferation assay): > 31.6 µM
- IC50 (134 cancer cell lines; Homo sapiens, SW900, read-out: IC50 in cell proliferation assay): > 31.6 µM
- IC50 (134 cancer cell lines; Homo sapiens, SW948, read-out: IC50 in cell proliferation assay): > 31.6 µM
- IC50 (134 cancer cell lines; Homo sapiens, SW982, read-out: IC50 in cell proliferation assay): > 31.6 µM
- IC50 (134 cancer cell lines; Homo sapiens, SW-620, read-out: IC50 in cell proliferation assay): > 31.6 µM
- IC50 (134 cancer cell lines; Homo sapiens, T98G, read-out: IC50 in cell proliferation assay): > 31.6 µM
- IC50 (134 cancer cell lines; Homo sapiens, TCC-SUP, read-out: IC50 in cell proliferation assay): > 31.6 µM
- IC50 (134 cancer cell lines; Homo sapiens, THP-1, read-out: IC50 in cell proliferation assay): > 31.6 µM
- IC50 (134 cancer cell lines; Homo sapiens, U2OS, read-out: IC50 in cell proliferation assay): > 31.6 µM
- IC50 (134 cancer cell lines; Homo sapiens, U-87 MG, read-out: IC50 in cell proliferation assay): 0.023 µM
- IC50 (134 cancer cell lines; Homo sapiens, U-118-MG, read-out: IC50 in cell proliferation assay): > 31.6 µM
- IC50 (134 cancer cell lines; Homo sapiens, UMUC3, read-out: IC50 in cell proliferation assay): > 31.6 µM
- IC50 (134 cancer cell lines; Hs766T, read-out: IC50 in cell proliferation assay): > 31.6 µM
- IC50 (134 cancer cell lines; L-82, read-out: IC50 in cell proliferation assay): > 31.6 µM
- IC50 (134 cancer cell lines; Rh30, read-out: IC50 in cell proliferation assay): 7.37 µM
- IC50 (AP-1060 (ETV6-NTRK3)): > 31.6 µM
- inhibition at 1 µM [1]: 3.29%
- inhibition at 1 µM [2]: -1.4%
